Results: patent US20260355184A1, “SMALL MOLECULE DEGRADERS OF HIV-1 TAT PROTEIN” (priority 2022, published 2026)
“Also recorded” adds a separate entry of the source.

Tests used:
ACH2 cells = test: SAHA mediated reactivation from latency in ACH2 cells; format: cell-based, HIV; details: text: day 12 and 32, FIG. 4B legend: day 12, vs DMSO+ARVs
ACH-2 cells = test: Cell-associated HIV Gag mRNA expression / HIV transcription in latently infected ACH-2 cells; format: cell-based; details: ACH2; 96-day period with ARVs; n=1
Experimental: (§1) Next, the activity of these leads against HIV infection was evaluated using the reporter cell line HeLa-CD4-LTR-LacZ, which stably expresses the β-galactosidase (β-Gal) gene under the control of the HIV 5′ LTR. The HIV NL4.3 strain was used for these studies and β-Gal activity was measured 72 hrs post infection (FIG. 3A). Cytotoxicity assays using Cell-Titer-Glo were performed in parallel to assess cell viability (FIG. 3A). […] Their anti-HIV activity was further assessed in acute replication of Jurkat T cells with the NL4.3 strain (FIG. 3A). […] These OM10.1 cells contain a single integrated wild-type provirus, while ACH-2 cells contain a single integrated provirus with a TAR mutation C37T, defective Tat-TAR feedback loop (FIG. 3B).

OM10.1 cells [1] = test: SAHA mediated reactivation from latency in OM10.1 cells; format: cell-based, HIV; details: day 12 and day 32, vs DMSO+ARVs
OM10.1 and ACH-2 cells = test: Toxicity / cell viability in latent cell models; details: OM10.1 and ACH2; 96-day period with ARVs
Experimental: as §1

[2] = tested on: TAR-SIIB promoter (Flag-Tat-Rev fusion protein); test: Flag-Tat-Rev fusion protein transactivation of TAR-SIIB promoter; format: cell-based, HIV-1; details: SIIB reporter HEK293T
Experimental: FIG. 4. […] Shown is n=1. […] Shown is n=1. ARVs: antiretrovirals: 100 nM Efavirenz, 200 nM Lamivudine and 200 nM Raltegravir. C. […] SIIB: a reporter HEK293T stable cell line where the essential apical region of TAR was replaced by the 29-nucleotide stem-loop IIB (SIIB) subdomain of the HIV-1 RRE. A Tat-Rev fusion protein activates transcription of luciferase when Rev binds SIIB, bringing Tat and P-TEFb to RNAPII at the HIV promoter. Shown is mean±SEM of n=4.

OM10.1 cells [3] = test: Cell-associated HIV Gag mRNA expression / HIV transcription in latently infected OM10.1 cells; format: cell-based; details: 96-day period with ARVs, n=1
Experimental: as §1

[4] = molecular target: Tat protein (ubiquitin chains) (Human immunodeficiency virus type 1 (HXB3 ISOLATE), UniProt P69698); test: Ubiquitin linkage assay: HA-Ubiquitin lysine mutants and Flag-Tat in HEK293T, western blot; format: cell-based, HIV; details: HA-Ubiquitin mutants, TT-44881 60 μM, 24 hours
Description: FIG. 10. TT-44881's anti-HIV activity engages heterogenous lysine linked Ubiquitin chains (K48 and K33 chains). A. Example of covalent binding of the Ubiquitin chains to the lysine residues of the Tat protein. B. Schematic of the different Ubiquitin chains that can be linked to the Tat protein to induce its degradation or stabilization. C. […] HEK293T cells overexpressing HA-Ubiquitin proteins (which have each lysine singly mutated to arginine or only one lysine present) and Flag-Tat protein were treated with TT-44881. Western blot assays were performed 24 hours later. TT-44881: 60 μM. Shown is representative of n=3.
Which Ubiquitin linkage engaged in the TT-44881 degradation activity was also investigated. HEK293T cells were transfected with Tat protein and HA-Ubiquitin which has each lysine singly mutated to arginine or only one lysine present.

Chain of Tat protein (ubiquitin chains) (P69698 whole entry): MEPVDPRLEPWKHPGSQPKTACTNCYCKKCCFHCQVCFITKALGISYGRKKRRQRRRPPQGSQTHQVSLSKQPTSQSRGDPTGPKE

Row | SMILES | SAHA mediated reactivation from latency (ACH2 cells) | HIV transcription (in words) (ACH-2 cells) | SAHA mediated reactivation from latency (OM10.1 cells [1]) | cell viability (OM10.1 and ACH-2 cells) | Flag-Tat-Rev transactivation of TAR-SIIB [2] | HIV transcription (in words) (OM10.1 cells [3]) | ubiquitin chain linkages engaged in Tat degradation [4]
1 | COCCOc1ccc(C(F)(F)F)cc1NC(=O)Cn1cc(C(F)(F)F)cc(Cl)c1=O [TT-44863] | potently blocked SAHA mediated reactivation from latency | inhibit HIV transcription | potently blocked SAHA mediated reactivation from latency | without affecting cell viability | inhibit Tat-Rev fusion protein transactivation | inhibit HIV transcription | –
2 | O=C(CCCCN1CCCC1=O)c1nn(-c2ccccc2)c2c1CCC2 [TT-44881] | potently blocked SAHA mediated reactivation from latency | inhibit HIV transcription | potently blocked SAHA mediated reactivation from latency | without affecting cell viability | inhibit Tat-Rev fusion protein transactivation | inhibit HIV transcription | K48-linked ubiquitin chains are involved in TT-44881 activity, K33 linked ubiquitin chains also seemed to be engaged; also recorded: blocks TT-44881 induced Tat degradation
